The IC50 is the point on the concentration scale where inhibition reaches its midpoint. For orientation: inhibition means how much of the control response was suppressed. Usually Ki stands for a measure of affinity in units of concentration, obtained from inhibition or displacement.

The structures appear in SMILES notation. Calls of active or inactive are those of the source. The rule behind the calls is not given here. Square brackets hold non-standard residues; d marks the D form. Peptide text beside a SMILES is read from it. Asu = N[C@@H](CCCCCC(=O)O)C(=O)O Where only a bound is given, the exact number is not on record here.

Test [1] addresses T1, NAD-dependent protein deacetylase sirtuin-1 (Homo sapiens, UniProt Q96EB6).
T1 sequence (Q96EB6 whole entry): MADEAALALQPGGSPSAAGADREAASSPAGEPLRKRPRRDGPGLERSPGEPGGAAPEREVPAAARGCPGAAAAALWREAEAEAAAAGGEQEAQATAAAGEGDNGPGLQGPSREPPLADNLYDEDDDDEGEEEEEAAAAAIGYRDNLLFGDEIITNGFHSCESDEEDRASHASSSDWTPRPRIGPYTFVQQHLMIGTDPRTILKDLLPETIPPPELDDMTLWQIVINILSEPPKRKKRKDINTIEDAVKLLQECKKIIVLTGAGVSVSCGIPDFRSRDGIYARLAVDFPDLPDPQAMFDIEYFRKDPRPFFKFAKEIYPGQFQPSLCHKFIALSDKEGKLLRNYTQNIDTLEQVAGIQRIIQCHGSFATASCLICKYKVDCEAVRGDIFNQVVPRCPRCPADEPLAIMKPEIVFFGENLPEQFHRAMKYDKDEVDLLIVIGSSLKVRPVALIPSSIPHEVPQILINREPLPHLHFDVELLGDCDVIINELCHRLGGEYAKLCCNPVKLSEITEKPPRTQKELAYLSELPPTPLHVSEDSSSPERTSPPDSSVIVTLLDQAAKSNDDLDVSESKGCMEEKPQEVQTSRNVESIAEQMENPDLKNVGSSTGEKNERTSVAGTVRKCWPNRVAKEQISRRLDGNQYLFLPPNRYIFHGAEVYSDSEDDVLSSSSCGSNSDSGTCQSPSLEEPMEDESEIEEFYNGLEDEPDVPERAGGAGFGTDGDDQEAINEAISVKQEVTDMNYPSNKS
Put plainly: Inhibition of lysine deacetylase activity of human full length GST-tagged SIRT1 expressed in Escherichia coli using H2N-HK-AcK-LM-COOH as substrate incubated with enzyme for 5 mins by reverse-phase HPLC analysis.

The target of test [2] is T2, Histone deacetylase 8 (Homo sapiens) (UniProt Q9BY41).
T2 sequence (whole entry): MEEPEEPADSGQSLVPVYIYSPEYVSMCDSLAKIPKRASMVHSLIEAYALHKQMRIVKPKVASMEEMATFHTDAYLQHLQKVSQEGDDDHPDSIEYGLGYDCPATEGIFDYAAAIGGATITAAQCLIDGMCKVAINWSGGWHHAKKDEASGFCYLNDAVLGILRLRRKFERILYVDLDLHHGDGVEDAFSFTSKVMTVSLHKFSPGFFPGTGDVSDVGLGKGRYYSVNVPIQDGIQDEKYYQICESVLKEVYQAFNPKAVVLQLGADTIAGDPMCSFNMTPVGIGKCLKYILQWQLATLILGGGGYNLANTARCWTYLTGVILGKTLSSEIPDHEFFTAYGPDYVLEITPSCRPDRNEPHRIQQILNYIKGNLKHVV
Put plainly: Inhibition of human full length HDAC8 using CH3CONH-RH-AcK-(AcK)-CONH2 as substrate assessed as enzymatic deacetylation product formation measured at 500 uM after 1 hr by HPLC analysis.

Test [3] addresses T3, NAD-dependent protein deacetylase sirtuin-1 (Homo sapiens) (UniProt Q96EB6).
T3 sequence (whole entry): T1 sequence (Q96EB6 whole entry)
Put plainly: Inhibition of SIRT1 in human HCT116 cells assessed as enhancement of p53 acetylation at K382 position at 5 uM after 8 hrs by Western blot analysis. The test is classed as cell-based. The conditions noted are these: HCT-116.

Test [4] deals with T3, NAD-dependent protein deacetylase sirtuin-1 (Homo sapiens). The test is described as follows: Inhibition of SIRT1 in human HCT116 cells assessed as enhancement of p53 acetylation at K382 position after 8 hrs by Western blot analysis. Format: cell-based. The conditions noted are these: HCT-116.
Test [5] has the same target. Put plainly: Inhibition of SIRT1 in human HCT116 cells assessed as enhancement of p53 acetylation at K382 position at 50 uM after 8 hrs by Western blot analysis. The conditions noted are these: HCT-116. The test is classed as cell-based.
The target in test [6] is T4, NAD-dependent protein deacetylase (Thermotoga maritima (strain ATCC 43589 / MSB8 / DSM 3109 / JCM 10099)) (UniProt Q9WYW0).
T4 sequence (whole entry): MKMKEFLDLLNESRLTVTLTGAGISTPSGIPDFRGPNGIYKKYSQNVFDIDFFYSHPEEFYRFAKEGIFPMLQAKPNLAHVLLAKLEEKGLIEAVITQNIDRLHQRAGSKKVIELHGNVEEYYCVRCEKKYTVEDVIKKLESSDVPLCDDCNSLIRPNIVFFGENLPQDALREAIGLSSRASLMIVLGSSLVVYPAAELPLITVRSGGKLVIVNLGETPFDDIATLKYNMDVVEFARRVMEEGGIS
The test is described as follows: Mechanism based inhibition of Thermotoga maritima Sir2Tm assessed as longer-lived stabilized catalytic intermediate formation at 0.4 mM after 30 mins by MALDI-MS analysis in presence of NAD+.

For test [7], the target named is T3, NAD-dependent protein deacetylase sirtuin-1 (Homo sapiens). Put plainly: Time-dependent inhibition of human full length GST-tagged SIRT1 expressed in Escherichia coli using H2N-HK-AcK-LM-COOH as substrate assessed as enzymatic deacetylation product formation at 5 to 10 uM by reverse-phase HPLC analysis.
Test [8] shares this target. Put plainly: Irreversible inhibition of human full length GST-tagged SIRT1 expressed in Escherichia coli using H2N-HK-AcK-LM-COOH as substrate assessed as recovery of enzyme activity at 150 uM preincubated for 30 mins followed by rapid dilution of preformed enzyme-inhibitor complex measured after 2 to 30 mins by reverse-phase HPLC analysis.
For test [9] the target is unchanged. The test is described as follows: Mechanism based inhibition of human full length GST-tagged SIRT1 expressed in Escherichia coli assessed as longer-lived stabilized catalytic intermediate formation at 0.4 mM after 30 mins by MALDI-MS analysis in presence of NAD+.
For test [10] the target is unchanged. Put plainly: Mechanism based inhibition of human full length GST-tagged SIRT1 expressed in Escherichia coli assessed as longer-lived stabilized catalytic intermediate 3 formation at 0.4 mM after 30 mins by MALDI-MS analysis in presence of NAD+ and 63% (v/v) H218O.
Test [11] addresses T1, NAD-dependent protein deacetylase sirtuin-1. The test is described as follows: Competitive inhibition of human full length GST-tagged SIRT1 expressed in Escherichia coli using H2N-HK-AcK-LM-COOH as substrate assessed as enzymatic deacetylation product formation incubated with enzyme for 5 mins by double reciprocal plot analysis.
Test [12] concerns the target T3, NAD-dependent protein deacetylase sirtuin-1 (Homo sapiens). The test is described as follows: Mechanism based inhibition of human full length GST-tagged SIRT1 expressed in Escherichia coli assessed as longer-lived stabilized catalytic intermediate 2 formation at 0.4 mM after 30 mins by MALDI-MS analysis in presence of NAD+ and 20% (v/v) methanol.
Test [13] shares this target. The test is described as follows: Inhibition of lysine deacetylase activity of human full length GST-tagged SIRT1 expressed in Escherichia coli using H2N-HK-AcK-LM-COOH as substrate at 500 uM incubated with enzyme for 5 mins by reverse-phase HPLC analysis.

In the case of `NC(=O)CCCCC[C@H](NC(=O)OCc1ccccc1)C(=O)Nc1ccccc1`, the IC50 in test [1] was above 1000 µM.

On to `CC(=O)NCCCC[C@H](NC(=O)[C@H](Cc1cnc[nH]1)NC(=O)[C@H](CCCNC(=N)N)NC(C)=O)C(=O)N[C@@H](CCCCCC(N)=O)C(N)=O` (Ac-RHK(Ac)[Asu](NH2)-NH2), for which, in [2], the inhibition came out at 12%.

For the molecule `CC(=O)NCCCC[C@H](NC(=O)[C@H](CCCCCC(N)=O)NC(=O)[C@H](CCCCNC(C)=O)NC(C)=O)C(N)=O` (Ac-Lys(Ac)-[Asu](NH2)-Lys(Ac)-NH2), in test [3], the outcome was inactive. Also, in test [4], the Activity entry was “Dose-dependent effect”. The result in test [5] was Active.

For `CSCC[C@H](NC(=O)[C@H](CC(C)C)NC(=O)[C@H](CCCCCC(N)=O)NC(=O)[C@H](CCCCN)NC(=O)[C@H](Cc1cnc[nH]1)NC(C)=O)C(N)=O` (Ac-HK[Asu](NH2)LM-NH2), the inhibition result in test [6], in test [7], in test [9], in test [10] and in test [12] was “Active” in each case. The molecule further yielded an IC50 in test [1] of 11.7 µM. Also, the result in test [8] was inactive. Further, in test [11], the Ki was 2.6 µM.

In the case of `COC(=O)CCCCC[C@H](NC(=O)[C@H](CCCCN)NC(=O)[C@H](Cc1cnc[nH]1)NC(C)=O)C(=O)N[C@@H](CC(C)C)C(=O)N[C@@H](CCSC)C(N)=O` (Ac-HK[Asu](OMe)LM-NH2), in test [13], the inhibition result is “inactive”.
